Article PMC6327987, “Synthesis and biological evaluation of novel N^9-heterobivalent β-carbolines as angiogenesis inhibitors” (Journal of Enzyme Inhibition and Medicinal Chemistry, 2019)
Several values for one entry are separate records, joined by “and”; a condition that tells them apart may be missing. Identical values can stand only once. Entries after “also recorded” stand apart in the source; their conditions may differ. Like-named read-outs stand apart in the source and are kept apart here.

Columns and labels:
HT-29 = assay: MTT cytotoxicity, colon carcinoma cells; format: cell-based; conditions: Homo sapiens; MTT assay, colon carcinoma HT-29, mean ± SD of at least three determinations
Description: (§1) Target compounds were assayed by the MTT method for cytotoxic activity, as described previously. The panel of cell lines included gastric carcinoma (BGC-823), liver carcinoma (HepG2), breast carcinoma (MCF-7), colon carcinoma (HT-29), esophageal carcinoma (Eca-109), and Lewis lung carcinoma (LLC). Growth inhibition rates were calculated with the following equitation: Inhibition ratio (%)= ODcompd−ODblank/ODDMSO−ODblank×100% . Half maximal inhibitory concentration (IC50) of each compound was calculated using software Graph-Pad Prism (version 6.0).
(§2) All the 24 novel synthesized N^9-heterobivalent β-carbolines (5a-x) were screened for their in vitro cytotoxic activities against six different cancer cell lines, namely BGC-823 (gastric carcinoma), HepG2 (liver carcinoma), MCF-7 (breast carcinoma), HT-29 (colon carcinoma), Eca-109 (esophageal carcinoma) and LLC (Lewis lung carcinoma). The IC50 values were the average of at least three independent experiments.

LLC = assay: MTT cytotoxicity, Lewis lung carcinoma cells; format: cell-based; conditions: Lewis lung carcinoma, MTT assay, mean ± SD of at least three determinations
Description: as §1, §2

MCF-7 = assay: MTT cytotoxicity, breast carcinoma cells; format: cell-based; conditions: Homo sapiens, MCF7; MTT assay, breast carcinoma MCF-7, mean ± SD of at least three determinations
Description: as §1, §2

HepG2 = assay: MTT cytotoxicity, liver carcinoma cells; format: cell-based; conditions: Homo sapiens; MTT assay, liver carcinoma HepG2, mean ± SD of at least three determinations
Description: as §1, §2

[1] = test system: six tumor cell lines (BGC-823, HepG2, MCF-7, HT-29, Eca-109, LLC); assay: MTT cytotoxicity, panel of six tumour cell lines (summary statements); format: cell-based; conditions: MTT assay, statement over all cell lines tested; read-out: IC50 against the tested six tumor cell lines
Description: as §1, §2

BGC-823 = assay: MTT cytotoxicity, gastric carcinoma cells; format: cell-based; conditions: Homo sapiens; MTT assay, gastric carcinoma BGC-823, mean ± SD of at least three determinations
Description: as §1, §2

Eca-109 = assay: MTT cytotoxicity, esophageal carcinoma cells; format: cell-based; conditions: Homo sapiens, ECa-109, MTT assay, esophageal carcinoma Eca-109, mean ± SD of at least three determinations
Description: as §1, §2

angiogenesis of CAM = assay: Chicken chorioallantoic membrane (CAM) angiogenesis assay; format: in vivo; conditions: gelatin sponge discs 0.5, 5.0 and 50 µM/disc, 48 h, blood vessels counted
Description: Anti-angiogenic activity of the selected compounds 5b and 5w were investigated in vivo using a CAM assay. Five-day-old fertilized eggs were obtained from a local hatchery. We injected 5 ml of albumin, and the eggs were incubated horizontally to allow the CAM to detach from the shell to produce a sham chamber. Compounds 5b and 5w were prepared in gelatin sponge discs (5 × 5 × 5 mm^3) at the concentration of 0.5, 5.0, and 50 µM/disc, respectively. CA4P was used as the positive control drug. Discs containing the vehicle only (DMSO) were used as the negative control. A small window opening was made in the shell, and the discs were directly applied onto the CAM. The square opening was covered with sterilized surgical tape and the embryos were incubated for 48 h at 38.5 °C. The CAMs were photographed under a dissecting microscope and blood vessels in each CAM were counted. The results are presented as a mean percentage of inhibition to the control ± SD, (n = 3).
The anti-angiogenetic activity of compounds 5b and 5w were semi-quantitatively analyzed using Graph Pad Prism 5.0 (shown in Figure 2(B)).

KM mice [2] = assay: Acute toxicity in mice (i.p.); format: in vivo; conditions: for Acute toxicity Neurotoxic effect: KM mice, intraperitoneal; for Acute toxicity LD50: both, KM, mouse, in vivo, ip, 14 days
Description: Specific pathogen-free KM mice (6–8 weeks old) weighing 19–22 g were housed in a mouse room at 24 ± 2 °C and 60–70% humidity with 12 h light/dark cycles. The mice were provided rodent laboratory chow pellets and tap water for a week to adapt to the environment of the mouse room. The experimental protocol was approved by the Institutional Animal Ethical Committee, and all of the animals were provided by Laboratory Animal Center of Xinjiang Uygur Autonomous Region. Prior to each experiment, mice were fastened overnight and allowed free access to water. Various doses of the asymmetric dimeric β-carboline derivatives, ranging from 5.0 to 500 mg kg^−1 dissolved in 0.5% carboxymethyl cellulose sodium (CMC-Na) salt solution, were given intraperitoneally to different groups of healthy KM mice, and each group contained 10 mice (5 males and 5 females). After the administration of the compounds, the mice were observed continuously for the first 2 h for any gross behavioral changes and deaths, then intermittently for the next 24 h, and occasionally thereafter for 14 days, and for the onset of any delayed effects. All of the animals were killed on the 14th day after drug administration, and they were checked macroscopically for possible damage to the heart, liver, and kidneys. Mice that experienced immediate death following drug administration were also examined for any possible organ damage. LD50 values were calculated graphically as described.
The LD50 values of the selected N^9-heterobivalent β-carbolines in mice after intraperitoneal (i.p.) administration are shown in Table 2. […] Death occurred mostly in the high dosage group within 4–8 h after injection. All of the surviving animals returned to normal within the next day.

Sarcoma 180 [3] = assay: In vivo antitumor activity, Sarcoma 180-bearing mice; conditions: i.p. once a day for seven days at the dosage of Table 2 (about one-fifth of LD50; CTX 30 mg kg^−1), tumour weight day 21, mean ± SD
Description: (§3) Sarcoma180 and Lewis lung cancer cell lines were provided by Shanghai Institute of Pharmaceutical Industry. Mice were inoculated with Sarcoma180 and Lewis lung cancer tumour cells. After 7 days, the tumours were removed and the cells were harvested. Mice received subcutaneous injections of viable tumour cells (2 × 10^6 cells/mouse) in the armpit. […] CTX at 30 mg kg^−1 was used as the positive control and the vehicle as the negative control. The weight of the animals was recorded every three days. All of the animals were killed on the 21st day after tumour inoculation, and the tumours were excised and weighed. The inhibition rate was calculated as follows: (C−T)/C×100 where T is the average tumor weight of the treated group and C is the average tumor weight of the negative control group.

KM mice [4] = conditions: mouse, in vivo; cited from earlier work
Lewis lung cancer [5] = test system: Lewis lung cancer; parameters: method as in PMID 12620075; conditions: mice, dosage 40 mg kg^−1; cited from earlier work
Sarcoma 180 [6] = test system: Sarcoma 180; parameters: method as in PMID 12620075; conditions: mice, dosage 40 mg kg^−1; cited from earlier work
Lewis lung cancer [7] = assay: In vivo antitumor activity, Lewis lung cancer-bearing mice; conditions: i.p. once a day for seven days at the dosage of Table 2 (about one-fifth of LD50; CTX 30 mg kg^−1), tumour weight day 21, mean ± SD
Description: as §3

| Compound | IC50 (HT-29) | IC50 (LLC) | IC50 (MCF-7) | melting point | IC50 (HepG2) | IC50 [1] | IC50 (BGC-823) | IC50 (Eca-109) | Anti-angiogenic effect in CAM assay (in words) (angiogenesis of CAM) | Acute toxicity Neurotoxic effect (KM mice [2]) | Acute toxicity LD50 (KM mice [2]) | Tumor inhibition rate (%) Sarcoma 180 (Sarcoma 180 [3]) | Acute toxicity LD50 (KM mice [4]) | Tumor inhibition rate (%) Lewis lung cancer (Lewis lung cancer [5]) | Tumor inhibition rate (%) Sarcoma 180 (Sarcoma 180 [6]) | Tumor inhibition rate (%) Lewis lung cancer (Lewis lung cancer [7]) |
| --- | --- | --- | --- | --- | --- | --- | --- | --- | --- | --- | --- | --- | --- | --- | --- | --- |
| Cc1nccc2c3ccccc3n(CCCCCn3c4ccccc4c4ccnc(-c5cccs5)c43)c12 [Compound 5g, 1–(2-thienyl)-9–(5-(1-methyl-β-carboline-9-yl)pentyl)-β-carboline] | 32.3 ± 5.3 µM | 22.7 ± 1.4 µM | 75.5 ± 10.7 µM | 158.4 to 159.2 °C | 18.8 ± 2.3 µM | 18.8 to 97.6 µM | 97.6 ± 12.4 µM | 30.8 ± 3.2 µM | – | – | – | – | – | – | – | – |
| Cc1nccc2c3ccccc3n(CCCCn3c4ccccc4c4ccnc(-c5cccnc5)c43)c12 [Compound 5b, 1–(3-pyridyl)-9–(4-(1-methyl-β-carboline-9-yl)butyl)-β-carboline] | 12.6 ± 1.2 µM | 12.4 ± 2.1 µM | 8.4 ± 1.7 µM | – | 15.9 ± 1.4 µM | < 20 µM | 12.1 ± 2.3 µM | 10.5 ± 1.3 µM | could inhibit the angiogenesis of CAM; also recorded: inhibited angiogenesis | –^b | 150 mg/kg | – | – | – | – | – |
| COc1ccc2c3ccnc(C)c3n(CCCCCn3c4ccccc4c4ccnc(C)c43)c2c1 [Compound 5t, 7-methoxy-1-methyl-9–(5-(1-methyl-β-carboline-9-yl)pentyl)-β-carboline] | 4.5 ± 0.6 µM | 3.1 ± 0.4 µM | 17.6 ± 3.4 µM | – | 31.6 ± 2.2 µM | – | 42.7 ± 2.9 µM | 51.9 ± 7.4 µM | – | + | 35 mg/kg | 37.2% and 37.2 ± 4.4% | – | – | – | – |
| Cc1nccc2c3ccccc3n(CCCCn3c4ccccc4c4ccnc(C)c43)c12 [Compound B-9-3, 1-Methyl-9-[4–(1-methyl-β-carboline-9-yl)butyl]-β-carboline, reference compound] | 40.6 ± 5.8 µM | 6.1 ± 0.9 µM | 13.2 ± 1.5 µM | – | > 100 µM | – | 22.3 ± 2.9 µM | 14.5 ± 2.2 µM | – | – | – | – | 200 mg/kg | 40.4% | 56.2% | – |
| O=P1(N(CCCl)CCCl)NCCCO1 (stereo not drawn) [CTX, Cyclophosphamide, reference compound] | – | – | – | – | – | – | – | – | – | – | – | 82.5 ± 3.4% | – | – | – | 80.7 ± 2.1% |
| COc1ccc2c3ccnc(C)c3n(CCCCn3c4ccccc4c4ccnc(-c5cccs5)c43)c2c1 [Compound 5w, 7-methoxy-1-methyl-9–(4-(1–(2-thienyl)-β-carboline-9-yl)butyl)-β-carboline] | 13.1 ± 3.5 µM | 13.1 ± 2.4 µM | 14.1 ± 1.4 µM | – | 15.4 ± 2.7 µM | < 20 µM | 16.5 ± 1.9 µM | 15.4 ± 1.9 µM | inhibited angiogenesis | + | 50 mg/kg | – | – | – | – | – |
| Cc1nccc2c3ccccc3n(CCCCCn3c4ccccc4c4ccnc(-c5cccnc5)c43)c12 [Compound 5c, 1–(3-pyridyl)-9–(5-(1-methyl-β-carboline-9-yl)pentyl)-β-carboline] | 13.3 ± 2.4 µM | 5.7 ± 1.2 µM | 15.3 ± 2.6 µM | – | 10.5 ± 2.1 µM | – | 22.6 ± 1.9 µM | 25.3 ± 3.2 µM | – | – | 175 mg/kg | 33.6% and 33.6 ± 9.2% | – | – | – | – |
| c1csc(-c2nccc3c4ccccc4n(CCCCn4c5ccccc5c5ccncc54)c23)c1 [Compound 5e, 1–(2-thienyl)-9–(4-(β-carboline-9-yl)butyl)-β-carboline] | 18.1 ± 3.6 µM | 32.3 ± 4.5 µM | > 100 µM | 141.6 to 143.1 °C | > 100 µM | – | > 100 µM | > 100 µM | – | – | – | – | – | – | – | – |
| COc1ccc(-c2nccc3c4ccccc4n(CCCCn4c5ccccc5c5ccnc(-c6cccs6)c54)c23)cc1OC [Compound 5p, 1–(3,4-dimethoxyphenyl)-9–(4-(1–(2-thienyl)-β-carboline-9-yl)butyl)-β-carboline] | > 100 µM | > 100 µM | > 100 µM | 217.2 to 218.4 °C | > 100 µM | – | > 100 µM | > 100 µM | – | – | – | – | – | – | – | – |
| Cc1nccc2c3ccccc3n(CCCCn3c4ccccc4c4ccnc(-c5ccccc5Cl)c43)c12 [Compound 5i, 1–(2-chlorophenyl)-9–(4-(1-methyl-β-carboline-9-yl)butyl)-β-carboline] | 28.3 ± 1.6 µM | 44.7 ± 3.6 µM | 95.5 ± 14.8 µM | 232 to 232.8 °C | 23.9 ± 3.7 µM | 18.8 to 97.6 µM | 37.9 ± 4.2 µM | 23.4 ± 4.1 µM | – | – | – | – | – | – | – | – |
